The values below come from patent US5250700A, “Phenyl pyrazolidinones as bronchodilators and anti-inflammatory agents” (American Home Products Corporation, priority 1992, dated 1993).

Each structure is given as a SMILES string. Counter-ions that a name gives are not always drawn.

The test system of this test is PDE IV. The test is described as follows: Inhibition of PDE IV isolated from canine tracheal muscle (cAMP metabolism). The test is classed as biochemical. The note with it: canine trachealis PDE IV, 1 μM 3H-cAMP, 10 μM CI-930, 30° C., pH 7.8; reduction expressed relative to 10 μM rolipram. On the procedure:
The following assay is employed to assess the ability of the compound of the invention to inhibit PDE IV. A solution containing PDE IV is prepared from canine tracheal muscle as follows: The dog is euthanized with an overdose of euthanasia while under anesthesia induced by a 33 mg/kg IV bolus of Nembutal. The trachealis muscle is removed, cleaned of connective tissue, and minced thoroughly. Three to four grams of tissue is then homogenized in Trim-HCl buffer (pH 7.8) using a Polytron. The homogenate is then centrifuged at 25,000×g (4° C.) for 30 minutes. The supernatant is decanted and filtered through four layers of gauze, and applied to a 40 cm×2 cm DEAE-Sepharose column that is equilibrated with Trim-HCl buffer (pH 7.8). The column is then washed with an additional 240 mL of buffer to remove unbound proteins. […] Each fraction is assayed for cAMP- and cGMP- metabolizing PDE activity. Fractions eluting at approximately 0.6 M Na-acetate, and containing CAMP but not CGMP metabolic activity are pooled and used as a PDE stock solution for assaying PDE IV inhibitory activity. […] CI-930 is included as an inhibitor of the cyclic GMP-sensitive, cyclic AMP-selectivePDE (PDE III) that is also present in the PDE IV stock solution when prepared as described above.

`COc1ccc(C2CC(=O)N(C(=O)NC3CCCCC3)N2C)cc1OC1CCCC1` (stereo not shown) [Example 18, N-cyclohexyl-3-[3-(cyclopentyloxy)-4-methoxyphenyl]-2-methyl-5-oxo-1-pyrazolidine carboxamide hydrochloride] returned an IC50 of 100 nM. `COc1ccc(NC(=O)N2C(=O)CC(c3ccc(OC)c(OC4CCCC4)c3)N2C)cc1` (stereo not shown) [Example 19, 3-[3-(cyclopentyloxy)-4-methoxyphenyl]-N-(4-methoxyphenyl)-2-methyl-5-oxo-1-pyrazolidinecarboxamide]: the midpoint of inhibition, the IC50, lay at 120 nM. Under `COc1ccc(C2CC(=O)N(C(=S)NCc3ccc(F)cc3)N2C)cc1OC1CCCC1` (stereo not shown) [Example 20, 3-[3-(cyclopentyloxy)-4-methoxyphenyl]-N-[(4-fluorophenyl)-methyl]-2-methyl-5-oxo-1-pyrazolidinecarbothioamide] stands 65 nM. Under `COc1ccc(CNC(=S)N2C(=O)CC(c3ccc(OC)c(OC4CCCC4)c3)N2C)cc1` (stereo not shown) [Example 21, 3-[3-(cyclopentyloxy)-4-methoxyphenyl]-N-[(4-methoxyphenyl)methyl]-2-methyl-5-oxo-1-pyrazolidinecarbothioamide] stands 53 nM; under `COc1ccc(C2CC(=O)N(C(=O)Nc3ccc(F)cc3)N2C)cc1OC1CCCC1` (stereo not shown) [Example 22], 210 nM; under `COc1ccc(C2CC(=O)N(C(N)=O)N2Cc2ccccc2)cc1OC1CCCC1` (stereo not shown) [Example 23], 320 nM. Under `COc1ccc(C2CC(=O)N(C(=O)NCc3cccnc3)N2C)cc1OC1CCCC1` (stereo not shown) [Example 24, 3-[3-(cyclopentyloxy)-4-methoxyphenyl]-2-methyl-5-oxo-N-(3-pyridinylmethyl)-1-pyrazolidine carboxamide] stands 85 nM. `COc1ccc(C2CC(=O)N(Cc3cccnc3)N2C)cc1OC1CCCC1` (stereo not shown) [Example 25, 5-[3-(cyclopentyloxy)-4-methoxyphenyl]-1-methyl-2-(3-pyridinylmethyl)-3-pyrazolidinone hydrochloride dehydrate]: it took 1500 nM to reach half-maximal inhibition (IC50). Under `CCCCCCCN1C(=O)CC(c2ccc(OC)c(OC3CCCC3)c2)N1C` (stereo not shown) [Example 26, 5-[3-(cyclopentyloxy)-4-methoxyphenyl-2-heptyl-1-methyl-3-pirazolidinone hydrochloride] stands 170 nM; under `COc1ccc(C2CC(=O)N(Cc3cncc(Br)c3)N2C)cc1OC1CCCC1` (stereo not shown) [Example 27, 2-[(5-bromo-3-pyridinyl)methyl]-5-[3-(cyclopentyloxy)-4-methoxyphenyl]-1-methyl-3-pyrazolidinone hydrochloride], 940 nM. Under `COc1ccc(C2CC(=O)N(C(=O)c3cncc(Br)c3)N2C)cc1OC1CCCC1` (stereo not shown) [Example 28, 5-[3-(cyclopentyloxy)-4-methoxyphenyl]-1-methyl-2-(5-bromo-3-pyridinylcarbonyl)-3-pyrazolidinone] stands 350 nM; under `COc1ccc(C2CC(=O)N(CCCc3cccnc3)N2C)cc1OC1CCCC1` (stereo not shown) [Example 29, 5-[3(cyclopentyloxy)-4-methoxyphenyl]-1-methyl-2-[3-(3-pyridinyl)propyl]-3-pyrazolidinone quarter dichloromethane], 160 nM. Under `COc1ccc(C2CC(=O)N(C/C=C/c3cncc(Br)c3)N2C)cc1OC1CCCC1` (stereo not shown) [Example 30, 2-[(E)-3-(5-bromo-3-pyridinyl)-2-propenyl]-5-[3-(cyclopentyloxy)-4-methoxyphenyl]-1-methyl-3-pyrazolidinone hemi(dichloromethane)] stands 50 nM. Regarding `COc1ccc(C2CC(=O)N(C(C)=O)N2C)cc1OC1CCCC1` (stereo not shown) [Example 31, 2-acetyl-5-[3-(cyclopentyloxy)-4-methoxyphentyl]-1-methyl-3-pyrazolidinone hydrochloride], the IC50 turned out to be 980 nM. Under `COc1ccc(C2CC(=O)N(C(=O)c3cccnc3)N2C)cc1OC1CCCC1` (stereo not shown) [Example 32, 5-[3-(cyclolpentyloxy)-4-methoxyphenyl]-1-methyl-2-(3-pyridinylcarbonyl)-3-pirazolidinone hemihydrate] stands 340 nM; under `COc1ccc(C2CC(=O)N(C(=O)/C=C/c3cncc(Br)c3)N2C)cc1OC1CCCC1` (stereo not shown) [Example 33], 81 nM. In turn, `COc1ccc(C2CC(=O)NN2Cc2ccccc2)cc1OC1CCCC1` (stereo not shown) [Example 34, 5-[3-(cyclopentyloxy)-4-methoxyphenyl]-1-(phenylmethyl)-3-pyrazolidinone] came in with a half-maximal inhibitory concentration (IC50) of 58 nM.

On to `CCN1NC(=O)CC1c1ccc(OC)c(OC2CCCC2)c1` (stereo not shown) [Example 35, 5-[3-(cyclopentyloxy)-4-methoxyphenyl]-1-ethyl-3-pyrazolidinone], for which the IC50 was found to be 4100 nM.

In turn, `CCN(CC)CCNC(=O)N1C(=O)CC(c2ccc(OC)c(OC3CCCC3)c2)N1C` (stereo not shown) [Example 36, 3-(3-Cyclopentyloxy-4-methoxyphenyl)-2-methyl-5-oxo-pyrazolidine-1-carboxylic acid 2-(diethyl-amino) ethylamide] registered an IC50 of 5600 nM.

`COc1ccc(C2CC(=O)N(C(=O)NN3CCOCC3)N2C)cc1OC1CCCC1` (stereo not shown) [Example 37, 3-(3-Cyclolpentyloxy-4-methoxyphenyl)-2-methyl-5-oxo-pyrazolidine-1-carboxylic acid morilholin-4-ylamide] had an IC50 of 3200 nM. The molecule `COc1ccc(C2CC(=O)N(C(=O)NCCCN3CCCC3=O)N2C)cc1OC1CCCC1` (stereo not shown) [Example 38, 3-(3-Cyclopentyloxy-4-methoxyphenyl)-2-methyl-5-oxo-pyrazolidine-1-carboxylic acid 3-(2-oxo-pyrrolidin-1-yl) propylamide] registered an IC50 of 560 nM.

In the case of `COc1ccc(C2CC(=O)N(C(=O)NCc3cccs3)N2C)cc1OC1CCCC1` (stereo not shown) [Example 39, 3-(3-Cyclopentyloxy-4-methoxyphenyl)-2-methyl-5-oxo-pyrazolidine-1-carboxylic acid thiophen-2-yl methylamide], the IC50 worked out at 150 nM. In turn, `COc1ccc(C2CC(=O)N(C(=O)NCCc3cccn3C)N2C)cc1OC1CCCC1` (stereo not shown) [Example 40, 3-(3-Cyclopentyloxy-4-methoxyphenyl)-2-methyl-5-oxo-pyrazolidine-1-carboxylic acid 2-(1-methyl-1H-pyrrol-2-yl) ethylamide] gave an IC50 of 190 nM. In turn, `COc1ccc(C2CC(=O)N(C(=O)NCCN3CCOCC3)N2C)cc1OC1CCCC1` (stereo not shown) [Example 41, 3-(3-Cyclolpentyloxy-4-methoxyphenyl)-2-methyl-5-oxo-pyrazolidine-1-carboxylic acid 2-morlpholin-4-yl ethylamide] returned a half-inhibitory concentration (IC50) of 2400 nM. Under `COc1ccc(C2CC(=O)N(C(=O)NCCCn3ccnc3)N2C)cc1OC1CCCC1` (stereo not shown) [Example 42, 3-(3-Cyclopentyloxy-4-methoxyphenyl)-2-methyl-5-oxo-pyrazolidine-1-carboxylic acid 3-imidazol-1-yl propylamide] stands 210 nM.
